One molecule from article PMC3733634, “A Computational Module Assembled from Different Protease Family Motifs Identifies PI PLC from Bacillus cereus as a Putative Prolyl Peptidase with a Serine Protease Scaffold” (PLoS ONE, 2013) can be followed below.

Counter-ions that a name gives are not always drawn.

Assay [1] concerns the target phosphoinositide-specific phospholipase C (PI-PLC) (Bacillus cereus, UniProt P14262). The assay is described as follows: inhibition of phospholipase activity of commercial PI-PLC on PI-containing large unilamellar vesicles (turbidity/aggregation assay). It is filed as biochemical.
Assay [2] concerns the target T1, cold-active Vibrio alkaline phosphatase (VAP) (Vibrio sp. G15-21, UniProt Q93P54).
T1 sequence (Q93P54 20-521): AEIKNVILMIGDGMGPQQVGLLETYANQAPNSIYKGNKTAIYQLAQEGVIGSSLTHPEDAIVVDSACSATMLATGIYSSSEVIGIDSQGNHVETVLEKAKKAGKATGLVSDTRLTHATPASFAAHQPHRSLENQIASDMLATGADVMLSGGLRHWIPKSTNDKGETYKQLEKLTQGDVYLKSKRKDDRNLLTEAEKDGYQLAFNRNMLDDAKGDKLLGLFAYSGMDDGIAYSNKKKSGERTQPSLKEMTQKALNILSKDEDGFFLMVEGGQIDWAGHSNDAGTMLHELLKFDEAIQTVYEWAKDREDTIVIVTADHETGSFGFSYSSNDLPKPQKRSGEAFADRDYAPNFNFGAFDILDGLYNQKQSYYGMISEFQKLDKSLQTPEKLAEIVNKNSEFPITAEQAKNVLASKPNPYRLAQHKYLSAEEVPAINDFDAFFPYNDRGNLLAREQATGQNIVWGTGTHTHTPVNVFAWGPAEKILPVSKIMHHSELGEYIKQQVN
In words: inhibition of native alkaline phosphatase activity at pH […] (n = […]). It is filed as biochemical.

Chain of phosphoinositide-specific phospholipase C (PI-PLC) (P14262 32-329 limits assumed): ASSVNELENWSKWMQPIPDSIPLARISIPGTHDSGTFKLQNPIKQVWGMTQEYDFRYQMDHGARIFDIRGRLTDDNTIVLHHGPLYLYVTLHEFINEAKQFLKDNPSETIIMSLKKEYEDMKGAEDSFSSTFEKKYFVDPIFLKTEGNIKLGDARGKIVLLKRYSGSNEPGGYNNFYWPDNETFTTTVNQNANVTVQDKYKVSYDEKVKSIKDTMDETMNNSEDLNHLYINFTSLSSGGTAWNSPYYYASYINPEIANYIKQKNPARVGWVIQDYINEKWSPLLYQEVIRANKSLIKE

For orientation: IC50 means the midpoint of a concentration-inhibition curve. High values mean weaker potency, low ones greater potency. On to `NCCc1ccc(S(=O)(=O)F)cc1` [AEBSF, 4-(2-aminoethyl) benzenesulfonyl fluoride hydrochloride], for which the results for the IC50 in assay [1] and in assay [2] were 18 µM and 350 µM, respectively.
